Read-outs that look alike come from different tables or passages of the source.
Columns and labels:
[1] = Food/water intake and body weight in 24-hour food deprived rats, oral gavage (PO); type: in vivo, rat
Procedure: Based upon the in vivo data developed, oral bioavailability of compound ARE112 was determined. The compound was administered by oral gavage at doses ranging from 6.75 to 54 mg/kg. The data presented in FIGS. 9A and 9B support the conclusion that oral administration of ARE112 also decreases food intake in both food-deprived and non-food deprived rats. […] In FIG. 9A, rats were deprived 24 hours prior to oral administration of the compound. In this assay, the vehicle-treated rats at 2.5 hours consumed […] of food while injected rats; particularly rats administered with 27 and 54 mg/kg of ARE 112, ate about 6 and 4 grams, respectively. […] (See, FIG. 9A).
Several other GPR6 inverse agonists were also assessed under 24-hour food deprived conditions, with PO administration. The analogs listed below were tested at 200 μmol/kg, which is equivalent to 54 mg/kg. In addition, ARE114 was also assessed at […]. Data are summarized below in Table C:
In a second assay, tested under the same conditions, several other analogs were assessed at 100 μmol/kg.
In FIG. 10, rats were deprived 24 hours prior to oral administration of the compound. In this assay, analogs ARE130, ARE135, ARE136, and ARE140, were administered at a dose of 100 μmol/kg. Three analogs, particularly, ARE130, ARE136 and ARE140 evidenced a slow intake of food (e.g., about 1 to 1.5 grams every two hours) over an eight hour period post-administration; while the vehicle rat consumed about 2 to 2.5 grams food every two hours. Similar to the vehicle rat, analog ARE135, an opened ring structure, evidenced that over an eight hour period post-administration the rats increasingly consumed about 2.5 grams every two hours. (See, FIG. 10A). Furthermore, the body weight of the vehicle rat and administered rats with analog ARE135 gained about 19.5 grams. On the other hand, the closed ring structures evidenced a decrease in body weight gain as follows: ARE112-6 grams, ARE130-9 grams, ARE136-11 grams and ARE140-14 grams. See, FIG. 10C.

[2] = target: T1, GPR6:Gsα-Fusion Protein (Homo sapiens, UniProt P46095); assay: [35S]GTPγS membrane binding assay (Example 4A); type: biochemical
T1 construct: expressed in transfected cells
Procedure: The assay plates were then centrifuged at 400 rpm for 15 minutes at room temperature and then subsequently aspirated and counted in a scintillation counter.
Membranes expressing the GPCR6:Gsα-Fusion Protein (see Example 2) and for use in the direct identification of candidate compounds as inverse agonists, agonists or partial agonists were prepared as follows:
All materials were kept on ice throughout the procedure. Firstly, the media was aspirated from a confluent monolayer of cells, followed by rinse with 10 ml cold PBS, followed by aspiration. Thereafter, 5 ml of membrane Scrape Buffer was added to scrape cells; this was followed by transfer of cellular extract into 50 ml centrifuge tubes (centrifuged at 20,000 rpm for 17 minutes at 4° C.). Thereafter, the supernatant was aspirated and the pellet was resuspended in 30 ml Membrane Wash Buffer followed by centrifuge at 20,000 rpm for 17 minutes at 4° C. The supernatant was then aspirated and the pellet resuspended in Binding Buffer. This was then homogenized using a Brinkman polytron™ homogenizer (15-20 second bursts until the all material was in suspension). This is referred to herein as “Membrane Protein”.
Candidate compounds (Tripos, Inc., St. Louis, Mo.) were received in 96-well plates (these can be frozen at −80° C.). Membrane Protein (or membranes with expression vector excluding the GPR6:Gsα-Fusion Protein, as control), were homogenized briefly until in suspension. Protein concentration was then determined using the Bradford Protein Assay set forth above. […] Thereafter, 100 ul GDP Buffer was added to each well of a Wallac Scintistrip™ (Wallac). A 5 ul pin-tool was then used to transfer 5 ul of a candidate compound into such well (i.e., 5 ul in total assay volume of 200 ul is a 1:40 ratio such that the final screening concentration of the candidate compound is 10 uM). Again, to avoid contamination, after each transfer step the pin tool was rinsed in three reservoirs comprising water (1×), ethanol (1×) and water (2×)—excess liquid should be shaken from the tool after each rinse and dried with paper towels and kimwipes™. Thereafter, 50 ul of Membrane Protein was added to each well (a control well comprising membranes without the GPCR Fusion Protein is also utilized), and pre-incubated for 5-10 minutes at room temperature (the plates were covered with foil in that the candidate compounds obtained from Tripos are light sensitive). Thereafter, 50 ul of [^35S]GTPγS (0.6 nM) in Binding Buffer was added to each well, followed by incubation on a shaker for 60 minutes at room temperature (again, in this example, plates were covered with foil). The assay was then stopped by spinning of the plates at 4000 RPM for 15 minutes at 22° C. The plates were then aspirated with an 8 channel manifold and sealed with plastic plate covers. The plates were then read on a Wallac 1450 using setting “Prot. #37” (as per manufacturer instructions).
The initial or “primary” screen designed to directly identify, e.g., human GPR6 receptor inverse agonists, consisted of the membrane-based GTPγS binding assay of Example 4A utilizing membranes prepared from 293 stable cells. Candidate compounds directly identified as inhibiting receptor-mediated increases in GTPγS as set forth below were considered active “leads”.
It is preferred that following such direct identification, IC50 (inverse agonist) or EC50 (agonist) values be determined; those having ordinary skill in the art are credited with utilizing IC50 and EC50 assay protocols of choice. FIG. 4 provides a representative IC50 curve for compound ARE112 using the assay protocol of Example 4A.

[3] = target: T2, GPR6 (Homo sapiens, UniProt P46095); assay: membrane-based cyclic AMP confirmation assay (Example 4C); type: biochemical; conditions: mean +/- standard deviation (number of assays in brackets); read-out: IC50 Values Cyclic AMP Assay Example 4C
T2 construct: expressed in transfected cells; 293 cells are used elsewhere
From the text: Using an independent assay approach to provide confirmation of a directly identified candidate compound as set forth above, it is preferred that a confirmation assay then be utilized. In this case, the preferred confirmation assay is membrane-based cyclic AMP (cAMP) assay.
A modified Flash Plate™ Adenylyl Cyclase kit (New England Nuclear; Cat. No. SMP004A) was utilized for confirmation of candidate compounds directly identified as inverse agonists and agonists to endogenous, constitutively activated orphan GPCRs in accordance with the following protocol.
Transfected stable cells were harvested approximately three days after transfection. Membranes were prepared by homogenization of suspended cells in buffer containing 20 mM HEPES, pH 7.4 and 10 mM MgCl2. Homogenization was performed on ice using a Brinkman Polytron™ for approximately 10 seconds. The resulting homogenate was centrifuged at 20,000 rpm for 20 minutes at 4° C. The resulting pellet was then resuspended in buffer containing 20 mM HEPES, pH 7.4 and 0.1 mM EDTA, homogenized for 10 seconds, followed by centrifugation at 20,000 rpm for 20 minutes at 4° C. The resulting pellet can be stored at −80° C. until utilized. On the day of direct identification screening, the membrane pellet is slowly thawed at room temperature, resuspended in buffer containing 20 mM HEPES, pH 7.4, 100 mM NaCl and 10 mM MgCL2, to yield a final protein concentration of 0.60 mg/ml (the resuspended membranes are placed on ice until use).
Candidate compounds identified as per above (if frozen, thawed at room temperature) were added to plate wells (3 μl/well; 12 μM final assay concentration), together with 50 μl Membrane Protein (30 μg/well) and 50 μl of Assay Buffer. This admixture was then incubated for 30 minutes at room temperature, with gentle shaking.
Following the incubation, 100 μl of Detection Buffer was added to each well, followed by incubation for 2-20 hours. Plates were subsequently aspirated and then counted in a Wallac MicroBeta™ plate reader using “Prot. #31” (as per manufacturer instructions).

[4] = 100 μmol/kg PO, second assay, Table D, vehicle 19.25

T1 sequence (P46095 with tags, fused parts or gaps): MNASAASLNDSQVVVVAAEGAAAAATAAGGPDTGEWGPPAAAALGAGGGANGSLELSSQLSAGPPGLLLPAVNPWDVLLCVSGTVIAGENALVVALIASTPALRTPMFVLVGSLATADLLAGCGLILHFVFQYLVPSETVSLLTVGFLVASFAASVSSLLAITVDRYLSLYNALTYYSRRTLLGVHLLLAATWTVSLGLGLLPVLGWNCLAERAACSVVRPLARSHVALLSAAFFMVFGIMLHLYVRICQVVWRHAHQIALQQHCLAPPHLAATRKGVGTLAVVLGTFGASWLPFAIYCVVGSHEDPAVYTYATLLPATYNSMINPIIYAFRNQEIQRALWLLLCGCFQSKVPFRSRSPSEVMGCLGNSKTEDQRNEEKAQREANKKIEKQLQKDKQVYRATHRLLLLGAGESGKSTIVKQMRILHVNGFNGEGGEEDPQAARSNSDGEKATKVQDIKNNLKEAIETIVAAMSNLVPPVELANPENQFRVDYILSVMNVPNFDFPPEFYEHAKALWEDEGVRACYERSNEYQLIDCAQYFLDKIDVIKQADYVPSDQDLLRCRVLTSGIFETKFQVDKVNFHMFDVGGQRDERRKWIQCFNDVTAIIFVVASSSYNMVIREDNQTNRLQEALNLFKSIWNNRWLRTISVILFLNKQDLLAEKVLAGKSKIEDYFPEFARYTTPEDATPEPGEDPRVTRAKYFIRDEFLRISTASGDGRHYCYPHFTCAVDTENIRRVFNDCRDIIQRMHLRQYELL
T2 sequence (P46095 whole entry): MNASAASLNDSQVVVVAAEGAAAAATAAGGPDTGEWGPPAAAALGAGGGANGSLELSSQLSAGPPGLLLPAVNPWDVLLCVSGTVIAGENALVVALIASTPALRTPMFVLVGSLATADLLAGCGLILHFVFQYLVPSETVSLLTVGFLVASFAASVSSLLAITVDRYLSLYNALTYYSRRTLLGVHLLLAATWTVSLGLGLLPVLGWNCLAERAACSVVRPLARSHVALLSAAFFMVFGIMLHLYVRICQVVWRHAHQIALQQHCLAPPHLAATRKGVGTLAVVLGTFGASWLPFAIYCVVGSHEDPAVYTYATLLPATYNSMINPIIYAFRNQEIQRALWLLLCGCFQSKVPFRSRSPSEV

IC50 ([2]; mean +/- SD (number of assays), read-out: IC50 Values (Table E, GTP Assay of Example 4A)): 170 nM | IC50 ([2]; mean +/- standard deviation (number of assays in brackets), read-out: IC50 Values GTP Assay Example 4A): 130 nM | IC50 [3]: 190 nM
Structure (SMILES): O=C(N=C1SSC2=NCCN21)c1cc2ccccc2s1 [ARE140, N-(5,6-dihydro-3H-imidazo[2,1-c]-1,2,4-dithiazol-3-ylidene)-benzothiophen-2-carboxamide]
Cumulative Food Intake (g) (8 hr post administration) ([1]; 100 μmol/kg PO, second assay, Table D, vehicle 14.0): 9.6 g | Body Weight Gain (g) (6 hr post administration) [1, 4]: 14.6 g | Cumulative Water Intake (g) (6 hr post administration) [1, 4]: 20.0 g | water drunk (FIG. 10B) ([1]; 100 μmol/kg oral, comparable to vehicle): about 19 grams | body weight gain (FIG. 10C) ([1]; 100 μmol/kg oral, vehicle about 19.5 grams): 14 grams

— patent publication US6420563B1, “Small molecule modulators of G protein-coupled receptor six” (Arena Pharmaceuticals, Inc., priority 1998, dated 2002)
